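Dose response: 5 concentrations. Exposure: 48 h. Format: 96-well plates. Endpoint: linear interpolation; highest concentration if not reached. GI50 = concentration required for 50% inhibition of growth. At the TGI there is no net growth.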
How the values were obtained:
Assay in all cases: inhibition of tumour cell growth, NCI panel, 48 h
CAKI-1 renal = test system: CAKI-1 renal
NCI-H460 lung = test system: NCI-H460 lung
MDA-MB-231 breast = test system: MDA-MB-231 breast
RXF 393 renal = test system: RXF 393 renal
HS 578T breast = test system: HS 578T breast
SK-OV-3 ovarian = test system: SK-OV-3 ovarian
MCF7 breast = test system: MCF7 breast
UACC-62 melanoma = test system: UACC-62 melanoma
SR leukemia = test system: SR leukemia
SW-620 colon = test system: SW-620 colon
U251 CNS = test system: U251 CNS
SK-MEL-2 melanoma = test system: SK-MEL-2 melanoma
SF-539 CNS = test system: SF-539 CNS
BT-549 breast = test system: BT-549 breast
SK-MEL-28 melanoma = test system: SK-MEL-28 melanoma
HOP-62 NSCLC = test system: HOP-62 NSCLC
IGROV1 ovarian = test system: IGROV1 ovarian
HCT-15 colon = test system: HCT-15 colon
HCC-2998 colon = test system: HCC-2998 colon
786-0 renal = test system: 786-0 renal
KM12 colon = test system: KM12 colon
SF-295 CNS = test system: SF-295 CNS
A498 renal = test system: A498 renal
NCI-H522 lung = test system: NCI-H522 lung
HL-60(TB) leukemia = test system: HL-60(TB) leukemia
OVCAR-3 ovarian = test system: OVCAR-3 ovarian
M14 melanoma = test system: M14 melanoma
T-47D breast = test system: T-47D breast
UACC-257 melanoma = test system: UACC-257 melanoma
OVCAR-8 ovarian = test system: OVCAR-8 ovarian
PC-3 prostate = test system: PC-3 prostate
EKVX NSCLC = test system: EKVX NSCLC
NCI-H226 lung = test system: NCI-H226 lung
K-562 leukemia = test system: K-562 leukemia
OVCAR-5 ovarian = test system: OVCAR-5 ovarian
HCT-116 colon = test system: HCT-116 colon
NCI-H23 lung = test system: NCI-H23 lung
NCI/ADR-RES ovarian = test system: NCI/ADR-RES ovarian
CCRF-CEM leukemia = test system: CCRF-CEM leukemia
COLO 205 colon = test system: COLO 205 colon
LOX IMVI melanoma = test system: LOX IMVI melanoma
MOLT-4 leukemia = test system: MOLT-4 leukemia
HT29 colon = test system: HT29 colon
SNB-19 CNS = test system: SNB-19 CNS
TK-10 renal = test system: TK-10 renal
DU-145 prostate = test system: DU-145 prostate
UO-31 renal = test system: UO-31 renal
RPMI-8226 leukemia = test system: RPMI-8226 leukemia
ACHN renal = test system: ACHN renal
SK-MEL-5 melanoma = test system: SK-MEL-5 melanoma
A549 NSCLC = test system: A549 NSCLC
SNB-75 CNS = test system: SNB-75 CNS
SN12C renal = test system: SN12C renal
SF-268 CNS = test system: SF-268 CNS

`Cc1ccc(-n2nnnc2-c2cnc(N3CCOCC3)nc2-c2cccc(C(F)(F)F)c2)cc1` gave a GI50 (CAKI-1 renal) of 1450 nM, a TGI (CAKI-1 renal) of 13200 nM and a GI50 (NCI-H460 lung) of 2000 nM. The TGI (NCI-H460 lung) was > 22400 nM, the GI50 (MDA-MB-231 breast) was 3240 nM and the TGI (MDA-MB-231 breast) was > 12200 nM. The GI50 (RXF 393 renal) was 1990 nM, the TGI (RXF 393 renal) was > 14500 nM and the GI50 (HS 578T breast) was 1270 nM. For the same compound, the TGI (HS 578T breast) was > 13800 nM, the GI50 (SK-OV-3 ovarian) was 1480 nM and the TGI (SK-OV-3 ovarian) was > 13300 nM. The GI50 (MCF7 breast) was 1320 nM, the TGI (MCF7 breast) was > 32800 nM and the GI50 (UACC-62 melanoma) was 1730 nM. It also gave a TGI (UACC-62 melanoma) of 25200 nM, a GI50 (SR leukemia) of 1130 nM and a TGI (SR leukemia) of 3170 nM. The GI50 (SW-620 colon) was 1930 nM, the TGI (SW-620 colon) was > 25100 nM and the GI50 (U251 CNS) was 3520 nM. The TGI (U251 CNS) was > 10600 nM, the GI50 (SK-MEL-2 melanoma) was > 10800 nM and the TGI (SK-MEL-2 melanoma) was > 50000 nM. The GI50 (SF-539 CNS) was 1160 nM, the TGI (SF-539 CNS) was 2720 nM and the GI50 (BT-549 breast) was 8300 nM. For the same compound, the TGI (BT-549 breast) was 31300 nM, the GI50 (SK-MEL-28 melanoma) was 14400 nM and the TGI (SK-MEL-28 melanoma) was > 50000 nM. The GI50 (HOP-62 NSCLC) was 1440 nM, the TGI (HOP-62 NSCLC) was 4900 nM and the GI50 (IGROV1 ovarian) was 1630 nM. The TGI (IGROV1 ovarian) was > 10700 nM, the GI50 (HCT-15 colon) was 3000 nM and the TGI (HCT-15 colon) was 8570 nM. It also gave a GI50 (HCC-2998 colon) of 992 nM, a TGI (HCC-2998 colon) of 2170 nM and a GI50 (786-0 renal) of 1890 nM. For the same compound, the TGI (786-0 renal) was > 50000 nM, the GI50 (KM12 colon) was 1260 nM and the TGI (KM12 colon) was 3590 nM. The GI50 (SF-295 CNS) was 1100 nM, the TGI (SF-295 CNS) was 3650 nM and the GI50 (A498 renal) was 2710 nM. For the same compound, the TGI (A498 renal) was 17100 nM, the GI50 (NCI-H522 lung) was 1890 nM and the TGI (NCI-H522 lung) was > 12900 nM. The GI50 (HL-60(TB) leukemia) was 2340 nM, the TGI (HL-60(TB) leukemia) was 17500 nM and the GI50 (OVCAR-3 ovarian) was 1050 nM. It also gave a TGI (OVCAR-3 ovarian) of 2810 nM, a GI50 (M14 melanoma) of 1080 nM and a TGI (M14 melanoma) of 2690 nM. The GI50 (T-47D breast) was 2310 nM, the TGI (T-47D breast) was > 15600 nM and the GI50 (UACC-257 melanoma) was 4880 nM. The TGI (UACC-257 melanoma) was > 30500 nM, the GI50 (OVCAR-8 ovarian) was 2830 nM and the TGI (OVCAR-8 ovarian) was > 22500 nM. The GI50 (PC-3 prostate) was 1440 nM, the TGI (PC-3 prostate) was 3930 nM and the GI50 (EKVX NSCLC) was 3930 nM. For the same compound, the TGI (EKVX NSCLC) was > 50000 nM, the GI50 (NCI-H226 lung) was 1510 nM and the TGI (NCI-H226 lung) was 10800 nM. For the same compound, the GI50 (K-562 leukemia) was 1960 nM, the TGI (K-562 leukemia) was > 22600 nM and the GI50 (OVCAR-5 ovarian) was 2600 nM. For the same compound, the TGI (OVCAR-5 ovarian) was > 43100 nM, the GI50 (HCT-116 colon) was 1350 nM and the TGI (HCT-116 colon) was 5080 nM. It also gave a GI50 (NCI-H23 lung) of 1360 nM, a TGI (NCI-H23 lung) of 4110 nM and a GI50 (NCI/ADR-RES ovarian) of 825 nM. The TGI (NCI/ADR-RES ovarian) was 2360 nM, the GI50 (CCRF-CEM leukemia) was 1100 nM and the TGI (CCRF-CEM leukemia) was 2550 nM. The GI50 (COLO 205 colon) was 1810 nM, the TGI (COLO 205 colon) was > 13500 nM and the GI50 (LOX IMVI melanoma) was 2530 nM. The TGI (LOX IMVI melanoma) was 7530 nM, the GI50 (MOLT-4 leukemia) was 2180 nM and the TGI (MOLT-4 leukemia) was > 10400 nM. For the same compound, the GI50 (HT29 colon) was 1530 nM, the TGI (HT29 colon) was > 18400 nM and the GI50 (SNB-19 CNS) was 2210 nM. For the same compound, the TGI (SNB-19 CNS) was > 32800 nM, the GI50 (TK-10 renal) was 1540 nM and the TGI (TK-10 renal) was 4560 nM. It also gave a GI50 (DU-145 prostate) of 1620 nM, a TGI (DU-145 prostate) of 16900 nM and a GI50 (UO-31 renal) of 1140 nM. For the same compound, the GI50 (RPMI-8226 leukemia) was 1280 nM, the TGI (RPMI-8226 leukemia) was 3770 nM and the GI50 (ACHN renal) was 4000 nM. The TGI (ACHN renal) was > 14700 nM, the GI50 (SK-MEL-5 melanoma) was 275 nM and the TGI (SK-MEL-5 melanoma) was 3420 nM. The GI50 (A549 NSCLC) was 2260 nM, the TGI (A549 NSCLC) was > 50000 nM and the GI50 (SNB-75 CNS) was 1600 nM. The TGI (SNB-75 CNS) was 3980 nM, the GI50 (SN12C renal) was 2530 nM and the TGI (SN12C renal) was > 13900 nM. The GI50 (SF-268 CNS) was 3000 nM and the TGI (SF-268 CNS) was 29400 nM.

From PubChem BioAssay (NCI)
